Key:
Kunming (KM) mice [1] = test: Mouse light-dark transition experiment (Experiment 2); format: in vivo
Protocol: 2.1 Experimental animals: Kunming (KM) mice, male, 24˜26 g of body weight, secondary, are provided by the Experimental Animal Science Department of Capital Medical University, Beijing.
2.2 Experimental pharmaceuticals: The pharmaceutical of Embodiment 4 is provided by Beijing Wonner Biotech. Ltd. Co., and Diazepam is the product of Tianjin Jinhuei Amino Acid Co. Ltd.
2.3 Experimental equipment: Self-made light-dark transition box.
2.4 Dose designs: 1. High dose of Embodiment 4 (80 mg/kg/d); 2. middle dose of Embodiment 4 (40 mg/kg/d); and 3. low dose of Embodiment 4 (20 mg/kg/d).
(§1) 2.5.1 Group division and administration of drug: The mice are grouped randomly as 5 groups, and 10 mice are in each group. 1. High dose of Embodiment 4 (80 mg/kg); 2. middle dose of Embodiment 4 (40 mg/kg); 3. low dose of Embodiment 4 (20 mg/kg); 4. […]
(§2) Mouse light-dark transition test: The dark chamber occupies one third of the light-dark transition chamber (44 cm×21 cm×21 cm), and the top is capped. […] The times that the mouse enters into the dark chamber and returns to the light chamber within 10 minutes are determined, and the times thereof are the index for evaluating the anti-anxiety function of the drugs.
2.5.3 Statistic calculation: The experimental data are represented as X±SD, and the experimental result is calculated as one-way ANOVA by SPSS 11.5 statistic software.

Kunming (KM) mice [2] = test: Mouse light-dark transition experiment (Experiment 1); format: in vivo
From the text: 1.1 Experimental animals: Kunming (KM) mice, male, 24˜26 g of body weight, secondary, are provided by the Experimental Animal Science Department of Capital Medical University, Beijing.
1.2 Experimental pharmaceuticals: The pharmaceutical of Embodiment 1 is provided by Beijing Wonner Biotech. Ltd. Co., and Diazepam is the product of Tianjin Jinhuei Amino Acid Co. Ltd.
1.3 Experimental equipment: Self-made light-dark transition box.
as §1, with “1.5.1 Group” for “2.5.1 Group”, “Embodiment 1” for “Embodiment 4”, “4. Diazepam (2.5 mg/kg); and 5. physiological saline (normal saline, NS).” for “4.”
as §2
1.5.3 Statistic calculation: The experimental data are represented as X±SD, and the experimental result is calculated as one-way analysis of variance (one-way ANOVA) by SPSS 11.5 statistic software.

[3] = in the human body; cited from earlier work
[4] = 2.5 mg/kg, fed into the stomach once daily for 7 days, test 1 hour after last administration, within 10 minutes, X±SD, 10 mice

SMILES	Times of passing from dark chamber to light chamber (Kunming (KM) mice [1]; [4])	Effect on the times that the mouse passes from the dark chamber to the light chamber, in words (Kunming (KM) mice [1]; compared with normal saline, high, middle and low doses of Embodiment 4, Diazepam 2.5 mg/kg)	Times of passing from dark chamber to light chamber (Kunming (KM) mice [2]; [4])	Effect on the times that the mouse passes from the dark chamber to the light chamber, in words (Kunming (KM) mice [2]; compared with physiological saline, high, middle and low doses of Embodiment 1, Diazepam 2.5 mg/kg)	Efficiency of conversion of glycyrrhizic acid to glycyrrhetinic acid [3]
CN1C(=O)CN=C(c2ccccc2)c2cc(Cl)ccc21 [Diazepam]	11.7 ± 4.47	significantly increase	11.3 ± 4.54	significantly increase	
CC1(C)[C@@H](O[C@H]2O[C@H](C(=O)O)[C@@H](O)[C@H](O)[C@H]2O[C@@H]2O[C@H](C(=O)O)[C@@H](O)[C@H](O)[C@H]2O)CC[C@]2(C)[C@H]3C(=O)C=C4[C@@H]5C[C@@](C)(C(=O)O)CC[C@]5(C)CC[C@@]4(C)[C@]3(C)CC[C@@H]12 [glycyrrhizic acid]					~100%
